According to US11958816B1, “N′-({[(5-phenyl-1,3,4-oxadiazol-2-yl)sulfanyl]acetyl}oxy)benzenecarboximidamide as an antimicrobial compound” (KING FAISAL UNIVERSITY, priority 2023, dated 2024):

How the values were obtained:
Assay type in all cases: cell-based
Pseudomonas aeruginosa = assay: Agar plate disc-diffusion, antibacterial activity (inhibition zone); conditions: nutrient agar, 37° C., 48 h, DMSO zone subtracted
Description: (§1) The agar plate disc-diffusion method was applied. […] The discs were then placed onto the surface of agar plates (nutrient agar for bacteria and Sabouraud's dextrose agar for fungi) seeded with the test organism. Each plate contained 15 mL of the agar medium, previously seeded with 0.2 mL of the broth culture of each organism pregrown for 18 hours. The plates were incubated at 37° C. for 48 h, and 72 h for fungi. The inhibition zones were measured in mm. Discs impregnated with DMSO were used as a control, and its inhibition zone was subtracted from the tested compound actual inhibition zone.

Bacillus cereus = assay: as above; conditions: nutrient agar, 37° C., 48 h, DMSO zone subtracted
Description: as §1

Staphylococcus aureus = assay: as above; conditions: nutrient agar, 37° C., 48 h, DMSO zone subtracted
Description: as §1

Escherichia coli = assay: as above; conditions: nutrient agar, 37° C., 48 h, DMSO zone subtracted
Description: as §1

[1] = test system: Chrysosporium keratinophilum; assay: Agar plate disc-diffusion, antifungal activity (inhibition zone); conditions: Sabouraud's dextrose agar, 37° C., 72 h, DMSO zone subtracted
Description: as §1

Aspergillus flavus = assay: as above; conditions: Sabouraud's dextrose agar, 37° C., 72 h, DMSO zone subtracted
Description: as §1

[2] = A = concentration of comp. = 10,000 μL
[3] = B = concentration of comp. = 30,000 μL
[4] = C = concentration of comp. = 50,000 μL

## N/C(=N\OC(=O)CSc1nnc(-c2ccccc2)o1)c1ccccc1 [Compound 3, N′-({[(5-phenyl-1,3,4-oxadiazol-2-yl)sulfanyl]acetyl}oxy)benzenecarboximidamide]
Pseudomonas aeruginosa; [2]
  inhibition zone, Pseudomonas aeruginosa, A: 17 mm
Pseudomonas aeruginosa; [3]
  inhibition zone, Pseudomonas aeruginosa, B: 24 mm
Pseudomonas aeruginosa; [4]
  inhibition zone, Pseudomonas aeruginosa, C: 36 mm
Bacillus cereus; [2]
  inhibition zone, Bacillus Cereus, A: 23 mm
Bacillus cereus; [3]
  inhibition zone, Bacillus Cereus, B: 28 mm
Bacillus cereus; [4]
  inhibition zone, Bacillus Cereus, C: 40 mm
Staphylococcus aureus; [2]
  inhibition zone, Staphylococcus aureus, A: 24 mm
Staphylococcus aureus; [3]
  inhibition zone, Staphylococcus aureus, B: 28 mm
Staphylococcus aureus; [4]
  inhibition zone, Staphylococcus aureus, C: 37 mm
Escherichia coli; [2]
  inhibition zone, Escherichia coli, A: 25 mm
Escherichia coli; [3]
  inhibition zone, Escherichia coli, B: 37 mm
Escherichia coli; [4]
  inhibition zone, Escherichia coli, C: 45 mm
[1]; [2]
  inhibition zone, Chrysosporium keratinophilum, A: 23 mm
[1]; [3]
  inhibition zone, Chrysosporium keratinophilum, B: 26 mm
[1]; [4]
  inhibition zone, Chrysosporium keratinophilum, C: 40 mm
Aspergillus flavus; [2]
  inhibition zone, Aspergillus flavus, A: 24 mm
Aspergillus flavus; [3]
  inhibition zone, Aspergillus flavus, B: 29 mm
Aspergillus flavus; [4]
  inhibition zone, Aspergillus flavus, C: 41 mm
